Tests used:
[1] = species on record: Bos taurus; experiment: Activation of bovine cardiac actin thin filament complex-stimulated myosin S1 ATPase activity assessed as inorganic phosphate liberated at 10 uM incubated for 10 mins in presence of ATP by spectrophotometry relative to control
[2] = test system: Rattus norvegicus; experiment: Positive […] activity in Sprague-Dawley rat assessed as increase in ejection fraction at 16 ug/kg/min, iv for 3 mins by echocardiography relative to control; format: functional
[3] = test system: Rattus norvegicus; experiment: Positive […] activity in Sprague-Dawley rat assessed as increase in fractional shortening at 16 ug/kg/min, iv for 3 mins by echocardiography relative to control; format: functional
[4] = species on record: Gallus gallus; experiment: Activation of chicken gizzard muscle actin and tropomyosin-stimulated myosin S1 ATPase activity assessed as inorganic phosphate liberated at 100 uM incubated for 10 mins in presence of ATP by spectrophotometry relative to control
[5] = species on record: Rattus norvegicus; experiment: Activation of myosin ATPase activity in Sprague-Dawley rat ventricular myocytes assessed as increase in ventricular cell shortening by measuring change in ventricular cell contractility at 1 uM by electrophysiology relative to control
[6] = species on record: Oryctolagus cuniculus; experiment: Activation of rabbit skeletal muscle actin thin filament complex-stimulated myosin S1 ATPase activity assessed as inorganic phosphate liberated at 100 uM incubated for 10 mins in presence of ATP by spectrophotometry relative to control
[7] = species on record: Rattus norvegicus; experiment: Activation of myosin ATPase activity in Sprague-Dawley rat ventricular myocytes assessed as increase in ventricular cell shortening by measuring change in ventricular cell contractility at 5 uM by electrophysiology relative to control

SMILES	Activity [1] [%]	Activity [2] [%]	Activity [3] [%]	other results
COc1ccc(CCNC(=O)CCCCc2ccccc2)cc1OC	71.6	8.19	11.83	–
COC(=O)N1CCN(Cc2cccc(NC(=O)Nc3ccc(C)nc3)c2F)CC1	58	–	–	Activity [4]: -5.5%; Activity [5]: 33.8%; Activity [6]: 2.8%
CN(CCCc1ccccc1)C(=O)NCCc1ccc(S(=O)(=O)N(C)C)cc1	47.6	–	–	Activity [7]: 63.5%
CN(CCc1ccc(S(=O)(=O)N(C)C)cc1)C(=O)NCCCc1ccccc1	52.3	–	–	Activity [7]: 45.5%
CNS(=O)(=O)c1ccc(CN(C)C(=O)CCCCc2ccccc2)cc1	55.9	9.95	15.75	–
O=C(CCCCc1ccccc1)NCCc1ccccc1	39.1	13.97	22.8	Activity [4]: -2.8%; Activity [6]: -2.9%; Activity [7]: 21.3%
CN(CCc1ccc(S(=O)(=O)N2CCOCC2)cc1)C(=O)CCCCc1ccccc1	14.9	–	–	–
CN(C)S(=O)(=O)c1ccc(CNC(=O)CCCCc2ccccc2)cc1	20	–	–	–
O=C(NCCCc1ccccc1)NCc1ccccc1	53.3	–	–	–
COc1ccccc1CCNC(=O)CCCCc1ccccc1	57.4	9.18	13.06	–
Cc1ccc2c(c1)C(=O)[C@]1(O)CCN(c3ccccc3)C1=N2	–	–	–	Activity [4]: -35.7%; Activity [6]: -50.7%
CCN(Cc1ccc(S(=O)(=O)N(C)C)cc1)C(=O)CCCCc1ccccc1	17.5	–	–	–
CN(CCCc1ccccc1)C(=O)CCCc1ccc(S(=O)(=O)N(C)C)cc1	55	14.08	24.69	Activity [4]: -3.4%; Activity [6]: 2.3%; Activity [7]: 46.5%
O=C(CCCCc1ccccc1)NCc1ccccc1	33.1	–	–	–
CN(C)S(=O)(=O)c1ccc(CCCC(=O)NCCCc2ccccc2)cc1	50.3	11.65	17.55	Activity [4]: 4.1%; Activity [6]: -1.9%; Activity [7]: 20.5%
NS(=O)(=O)c1ccc(CCNC(=O)CCCCc2ccccc2)cc1	78.7	2.7	4.48	–

SMILES	Activity [1] [%]	Activity [2] [%]	Activity [3] [%]	other results
CN(Cc1ccc(S(=O)(=O)N(C)C)cc1)C(=O)CCCCc1ccccc1	24.1	–	–	–
O=C(CCCc1ccccc1)NCCCc1ccccc1	62	9.08	13.85	–
CCN(CC)S(=O)(=O)c1ccc(CCN(C)C(=O)CCCCc2ccccc2)cc1	17.9	–	–	–
O=C(CCCCc1ccccc1)NCCc1ccccc1F	43.3	–	–	–
Cc1ccc(CCNC(=O)CCCCc2ccccc2)cc1	62.9	–	–	–
CN(C)S(=O)(=O)c1ccc(CCCC(=O)N2CCN(c3ccccc3)CC2)cc1	14	–	–	–
CN(C)S(=O)(=O)c1ccc(CCCC(=O)N2CCC(c3ccccc3)CC2)cc1	29.5	–	–	–
CN(C)S(=O)(=O)c1ccc(CCNC(=O)CCCCc2ccccc2)cc1	59	9.75	14.85	Activity [4]: 3%; Activity [6]: -2.8%; Activity [7]: 18.6%
CN(CCc1ccc(S(=O)(=O)N(C)C)cc1)C(=O)CCCCc1ccccc1	48.5	15.28	26.21	Activity [4]: 5.2%; Activity [6]: -4.8%; Activity [7]: 88.2%
NS(=O)(=O)c1ccc(CNC(=O)CCCCc2ccccc2)cc1	44.4	–	–	–
O=C(NCCCc1ccccc1)NCCc1ccccc1	51.1	–	–	–
CNS(=O)(=O)c1ccc(CCN(C)C(=O)CCCCc2ccccc2)cc1	46.5	9.22	13.51	–
CN(C)S(=O)(=O)c1ccc(CCNC(=O)NCCCc2ccccc2)cc1	91.6	–	–	Activity [7]: 47.9%
O=C(CCCCc1ccccc1)NC1Cc2ccccc2C1	31.1	–	–	–
CCN(CCc1ccc(S(=O)(=O)N(C)C)cc1)C(=O)CCCCc1ccccc1	13.9	–	–	–
